For data set [1], the system named is Mus musculus. Nature of the data set: Antiulcer activity in indomethacin-induced Balb/c mouse model of gastric ulcer assessed as mean ulcer index at 50 mg/kg, po pre-administered with compound for 30 mins followed by indomethacin administration and measured after 4 hrs (reference value: 52.5 +/- 1.4). The data set is classed as functional. As to conditions: time 4.5 hrs.

Data set [2] relates to Mus musculus. Nature of the data set: Antiulcer activity in indomethacin-induced Balb/c mouse model of gastric ulcer assessed as inhibition of ulceration at 50 mg/kg, po pre-administered with compound for 30 mins followed by indomethacin administration and measured after 4 hrs relative to control. The format is functional. As to conditions: time 4.5 hrs.
Data set [3] can be described thus: Toxicity in Balb/c mouse assessed as abdominal distension at 150 to 300 mg/kg, po administered via gavage for 25 days. The format is organism-based. Conditions: in vivo, 600 h, dose 150-300 mg/kg, time 25 day.
For data set [4], the system named is Mus musculus. The data set is described as follows: Antiulcer activity in indomethacin-induced Balb/c mouse model of gastric ulcer assessed as intact epithelial layer in gastric tissue at 50 mg/kg, po pre-administered with compound for 30 mins followed by indomethacin administration and measured after 4 hrs by H&E staining based analysis. The data set is classed as functional, organism-based. Conditions: time 4.5 hrs.

The test system of data set [5] is Mus musculus. Nature of the data set: Antioxidant activity in indomethacin-induced Balb/c mouse model of gastric ulcer assessed as lipid peroxidation by measuring TBARS activity in stomach at 50 mg/kg, po pre-administered with compound for 30 mins followed by indomethacin administration and measured after 4 hrs by TBARS assay (reference value: 1.40 +/- 0.03 nmol/mg). As to conditions: time 4.5 hrs. The data set is classed as functional.

Data set [6] can be described thus: Toxicity in Balb/c mouse assessed as effect on body weight at 150 to 300 mg/kg, po administered via gavage for 25 days. The format is organism-based. Conditions: in vivo, 600 h, dose 150-300 mg/kg, time 25 day.
In data set [7] the test system is Mus musculus. The data set is described as follows: Antiulcer activity in indomethacin-induced Balb/c mouse model of gastric ulcer assessed as inflammatory cell infiltration at 50 mg/kg, po pre-administered with compound for 30 mins followed by indomethacin administration and measured after 4 hrs by H&E staining based analysis (reference value: 147 +/- 5.2%). The format is functional. As to conditions: time 4.5 hrs.

A short description of data set [8]: Toxicity in Balb/c mouse assessed as fur loss at 150 to 300 mg/kg, po administered via gavage for 25 days. The format is organism-based. Conditions: in vivo, 600 h, dose 150-300 mg/kg, time 25 day.
Data set [9] has as its system Mus musculus. Nature of the data set: Antiulcer activity in indomethacin-induced Balb/c mouse model of gastric ulcer assessed as reduction in mucosal injury at 50 mg/kg, po pre-administered with compound for 30 mins followed by indomethacin administration and measured after 4 hrs by H&E staining based analysis relative to control. The format is functional. On the set-up: scale not given: the % may be the effect or the level left. As to conditions: time 4.5 hrs.

The nature of data set [10]: Toxicity in Balb/c mouse assessed as lethargy at 150 to 300 mg/kg, po administered via gavage for 25 days. The data set is classed as organism-based. As to conditions: in vivo, 600 h, dose 150-300 mg/kg, time 25 day.
In data set [11] the target is T1, Matrix metalloproteinase-9 (Homo sapiens, UniProt P14780). Nature of the data set: Inhibition of human MMP-9 at 500 uM incubated for 3 hrs by SDS-PAGE based gelatin zymography analysis.
A short description of data set [12]: Toxicity in Balb/c mouse assessed as hunching at 150 to 300 mg/kg, po administered via gavage for 25 days. The data set is classed as organism-based. As to conditions: in vivo, 600 h, dose 150-300 mg/kg, time 25 day.
Data set [13] relates to Mus musculus. The data set is described as follows: Antiulcer activity in indomethacin-induced Balb/c mouse model of gastric ulcer assessed as inhibition of gastric mucosal apoptosis at 50 mg/kg, po pre-administered with compound for 30 mins followed by indomethacin administration and measured after 4 hrs by TUNEL assay. The format is functional, organism-based. As to conditions: time 4.5 hrs.

The test system of data set [14] is Mus musculus. Nature of the data set: Antiulcer activity in indomethacin-induced Balb/c mouse model of gastric ulcer assessed as prevention of inflammatory cell infiltration at 50 mg/kg, po pre-administered with compound for 30 mins followed by indomethacin administration and measured after 4 hrs by H&E staining based analysis relative to control. The format is functional. Conditions: time 4.5 hrs.

For data set [15], the system named is Mus musculus. Nature of the data set: In vivo inhibition of MMP-9 expression in indomethacin-induced Balb/c mouse model of gastric ulcer at 50 mg/kg, po pre-administered with compound for 30 mins followed by indomethacin administration and measured after 4 hrs by PI staining based immunofluorescence analysis. As to conditions: time 4.5 hrs. The format is functional, organism-based.

Data set [16] has as its system Mus musculus. The data set is described as follows: Antiulcer activity in indomethacin-induced Balb/c mouse model of gastric ulcer assessed as reduction in gastric tissue injury at 50 mg/kg, po pre-administered with compound for 30 mins followed by indomethacin administration and measured after 4 hrs by H&E staining based analysis. The data set is classed as functional, organism-based. Conditions: time 4.5 hrs.

Data set [17] is described as follows: AUC in Sprague-Dawley rat at 250 mg/kg, po administered via gavage by HPLC analysis. The arrangement: dose 250 mg/kg, route po. As to conditions: in vivo. The data set is classed as ADME, organism-based.
Data set [18] addresses T1, Matrix metalloproteinase-9. The data set is described as follows: Inhibition of human MMP-9 incubated for 3 hrs by SDS-PAGE based gelatin zymography analysis.
The nature of data set [19]: Tmax in Sprague-Dawley rat at 250 mg/kg, po administered via gavage by HPLC analysis. As to conditions: in vivo. The data set is classed as ADME, organism-based.
For data set [20], the target named is 72 kDa type IV collagenase (Homo sapiens) (UniProt P08253). Nature of the data set: Inhibition of MMP-2 (unknown origin) upto 500 uM incubated for 3 hrs by SDS-PAGE analysis.
Data set [21] has as its system Mus musculus. The data set is described as follows: Antiulcer activity in indomethacin-induced Balb/c mouse model of gastric ulcer assessed as cell injury in mucosa at 50 mg/kg, po pre-administered with compound for 30 mins followed by indomethacin administration and measured after 4 hrs by H&E staining based analysis (reference value: 70+/- 6.5 %). The format is functional. As to conditions: time 4.5 hrs.

A short description of data set [22]: Toxicity in Balb/c mouse assessed as mortality at 150 to 300 mg/kg, po administered via gavage for 25 days. The format is organism-based. Conditions: in vivo, 600 h, dose 150-300 mg/kg, time 25 day.
For data set [23], the target named is T2, Prostaglandin G/H synthase 2 (Homo sapiens, UniProt P35354).
T2 sequence (P35354 whole entry): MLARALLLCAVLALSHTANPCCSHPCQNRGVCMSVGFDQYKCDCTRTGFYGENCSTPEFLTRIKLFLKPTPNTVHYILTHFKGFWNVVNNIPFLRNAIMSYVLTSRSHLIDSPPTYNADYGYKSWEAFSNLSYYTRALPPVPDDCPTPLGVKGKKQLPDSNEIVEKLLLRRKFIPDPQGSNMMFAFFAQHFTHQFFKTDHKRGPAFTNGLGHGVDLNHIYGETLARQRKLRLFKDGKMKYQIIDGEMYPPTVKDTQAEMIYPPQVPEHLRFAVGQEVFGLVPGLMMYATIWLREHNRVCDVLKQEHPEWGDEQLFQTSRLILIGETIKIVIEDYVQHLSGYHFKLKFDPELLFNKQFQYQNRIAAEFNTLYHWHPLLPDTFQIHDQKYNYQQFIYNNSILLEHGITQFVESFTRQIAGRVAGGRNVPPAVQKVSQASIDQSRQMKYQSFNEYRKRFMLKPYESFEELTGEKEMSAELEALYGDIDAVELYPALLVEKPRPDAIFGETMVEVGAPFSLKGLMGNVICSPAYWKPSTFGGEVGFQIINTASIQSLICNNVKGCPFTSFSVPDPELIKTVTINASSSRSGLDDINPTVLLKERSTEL
The data set is described as follows: Inhibition of COX2 (unknown origin) preincubated with compound for 5 mins followed by substrate addition and measured after 5 mins by fluorescence spectrophotometer analysis.

The test system of data set [24] is Mus musculus. The data set is described as follows: In vivo inhibition of MMP-9 activity in indomethacin-induced Balb/c mouse model of gastric ulcer at 50 mg/kg, po pre-administered with compound for 30 mins followed by indomethacin administration and measured after 4 hrs by SDS-PAGE based gelatin zymography method. Conditions: time 4.5 hrs. The format is functional, organism-based.

Data set [25] has as its system Mus musculus. The data set is described as follows: Antiulcer activity in indomethacin-induced Balb/c mouse model of gastric ulcer assessed as inhibition of ulceration at 12 mg/kg, po pre-administered with compound for 30 mins followed by indomethacin administration and measured after 4 hrs relative to control. The format is functional. Conditions: time 4.5 hrs.
Data set [26] deals with Mus musculus. The data set is described as follows: Antiulcer activity in indomethacin-induced Balb/c mouse model of gastric ulcer assessed as mean ulcer index at 12 mg/kg, po pre-administered with compound for 30 mins followed by indomethacin administration and measured after 4 hrs (reference value: 52.5 +/- 1.4). The format is functional. Conditions: time 4.5 hrs.

Activity calls are given as the source filed them. No cut-off for these calls is given here.

Broadly, the inhibition in vivo is the change of the read-out against control, counted positive when it falls. One may read the AUC as concentration integrated over time. By IC50 is commonly meant the concentration that gives 50% inhibition. A word on the Tmax: it is the time at which the peak concentration occurs.

T1 sequence (P14780 whole entry): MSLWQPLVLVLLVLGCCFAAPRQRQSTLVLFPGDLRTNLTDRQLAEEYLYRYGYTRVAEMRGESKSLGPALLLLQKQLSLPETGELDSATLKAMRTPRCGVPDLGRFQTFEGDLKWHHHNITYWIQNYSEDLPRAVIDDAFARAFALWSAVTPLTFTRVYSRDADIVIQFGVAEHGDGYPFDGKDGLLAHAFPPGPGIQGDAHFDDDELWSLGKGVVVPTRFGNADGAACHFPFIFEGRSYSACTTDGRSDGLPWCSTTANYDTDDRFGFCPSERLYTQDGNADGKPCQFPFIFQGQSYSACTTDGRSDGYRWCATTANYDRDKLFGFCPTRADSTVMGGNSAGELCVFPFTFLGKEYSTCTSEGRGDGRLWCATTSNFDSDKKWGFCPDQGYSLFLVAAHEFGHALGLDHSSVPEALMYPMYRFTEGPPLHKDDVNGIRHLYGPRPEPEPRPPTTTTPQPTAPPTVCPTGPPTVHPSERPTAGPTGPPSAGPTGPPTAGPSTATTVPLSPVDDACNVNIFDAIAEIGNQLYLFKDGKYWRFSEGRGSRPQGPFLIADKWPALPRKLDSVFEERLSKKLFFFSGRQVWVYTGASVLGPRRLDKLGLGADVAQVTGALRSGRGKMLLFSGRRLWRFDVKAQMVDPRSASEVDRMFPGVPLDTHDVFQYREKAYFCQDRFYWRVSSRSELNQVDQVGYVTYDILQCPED
72 kDa type IV collagenase (Homo sapiens), sequence (P08253 110-660 limits assumed): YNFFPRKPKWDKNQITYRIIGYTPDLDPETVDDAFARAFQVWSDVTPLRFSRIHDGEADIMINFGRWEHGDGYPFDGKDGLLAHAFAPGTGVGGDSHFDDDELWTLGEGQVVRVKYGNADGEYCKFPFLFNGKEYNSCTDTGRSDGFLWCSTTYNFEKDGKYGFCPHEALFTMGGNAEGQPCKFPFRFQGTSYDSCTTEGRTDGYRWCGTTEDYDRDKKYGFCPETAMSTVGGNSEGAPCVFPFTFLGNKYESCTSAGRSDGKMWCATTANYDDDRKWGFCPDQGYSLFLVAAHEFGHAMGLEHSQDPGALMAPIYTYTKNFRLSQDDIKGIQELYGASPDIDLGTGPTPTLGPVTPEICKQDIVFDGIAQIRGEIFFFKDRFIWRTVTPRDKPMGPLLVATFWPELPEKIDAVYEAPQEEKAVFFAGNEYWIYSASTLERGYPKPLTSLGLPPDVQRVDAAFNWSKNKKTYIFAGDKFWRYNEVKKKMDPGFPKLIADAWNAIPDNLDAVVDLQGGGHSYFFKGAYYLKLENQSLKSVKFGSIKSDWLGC

`Oc1ccc2[nH]cc(-c3cc(-c4ccccc4)oc3-c3ccccc3)c2c1`: the UI in data set [1] was found to be 11.5. In addition, the inhibition in vivo at 50 mg/kg in [2] turned out to be 78%.
For `c1ccc(-c2cc(-c3c[nH]c4ccccc34)c(-c3ccccc3)o2)cc1`, in data set [1], the UI stood at 20.2. The inhibition in vivo at 50 mg/kg in data set [2] stood at 62%.
Consider `COc1cccc2[nH]cc(-c3cc(-c4ccccc4)oc3-c3ccccc3)c12`, for which the Activity result in [3] is recorded as “Non-Toxic”; in [5] it was 0.47 nmol/mg; in [6], “Non-Toxic”; in [7], 92%; in data set [8], “Non-Toxic”; in data set [9], about 90%. The Activity result in data set [10] is on record as “Non-Toxic”; in data set [12] it was “Non-Toxic”; in data set [14], 100%; in data set [21], 12%; in [22], “Non-Toxic”. The UI in data set [1] is on record as 2.5. Moreover, the outcome in data set [4], in [13] and in data set [16] was Active. The inhibition result in data set [11], in data set [15] and in data set [24] was “Active” throughout. The AUC in [17] was found to be 1270 µg·h/mL. Further, the IC50 was about 50 µM in data set [18] and over 100 µM in data set [23]. The Tmax in [19] was 6 h. Besides, the inhibition entry in data set [20] is “inactive”. In data set [2], the inhibition in vivo at 50 mg/kg came to 95%.
Turning to `c1ccc(-c2cc(-c3c(-c4ccccc4)[nH]c4ccccc34)c(-c3ccccc3)o2)cc1`, the UI in data set [1] is recorded as 18.25. For the same molecule, in data set [2], the inhibition in vivo at 50 mg/kg was 65%.
In the case of `Oc1ccccc1-c1[nH]c2ccccc2c1-c1cc(-c2ccccc2)oc1-c1ccccc1`, in [1], the UI was 14.5. In addition, in [2], the inhibition in vivo at 50 mg/kg came out at 72%.
Regarding `COc1cccc2c1c(-c1cc(-c3ccccc3)oc1-c1ccccc1)cn2C`, in [1], the UI stood at 23.25. Moreover, the inhibition in vivo at 50 mg/kg in [2] came to 56%.
The matching figures for `COc1ccc2[nH]cc(-c3cc(-c4ccccc4)oc3-c3ccccc3)c2c1`: 9 and 83%.
Consider `COc1ccc2[nH]cc(-c3cc(-c4ccccc4)oc3-c3ccccc3)c2c1OC`, for which, in data set [1], the UI is recorded as 13.5. In addition, the inhibition in vivo at 50 mg/kg in data set [2] was 74%.
On to `COc1ccc2[nH]c([S+]([O-])Cc3ncc(C)c(OC)c3C)nc2c1` (stereo not given) [OMEPRAZOLE], for which the inhibition in vivo at 12 mg/kg in data set [25] was 100%. Further, the UI in data set [26] came to 0.5.
